These results are taken from ChEMBL document CHEMBL1201862, “PubChem BioAssay data set” (2004).

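Results reflect a 48-hour exposure of cells in 96-well plates to compound at five concentrations. The concentration for 50% growth inhibition is given as GI50.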 Active and inactive are the calls of the source. Cut-off read from the data, not from the text of the source: active = GI50 up to about 1.1 µM and inactive = higher. Bounds are passed on as bounds.

What all share (assay): NCI tumour cell line growth inhibition, 48 h
In assay [1] the test system is NCI/ADR-RES.
Assay [2] deals with MDA-MB-435.
In assay [3] the test system is SN12C.
Assay [4] deals with HCT-15.
The test system of assay [5] is T47D.
The subject of assay [6] is 786-0.
Assay [7] relates to SF-268.
Assay [8] relates to A549.
Assay [9] concerns UACC-62.
Assay [10] relates to SW-620.
For assay [11], the system named is K562.
Assay [12] concerns IGROV-1.
The test system of assay [13] is DU-145.
Assay [14] has as its system NCI-H460.
Assay [15] deals with A498.
The test system of assay [16] is PC-3.
The subject of assay [17] is SK-MEL-5.
In assay [18] the test system is BT-549.
The subject of assay [19] is LOX IMVI.
Assay [20] deals with CCRF-CEM.

Regarding `Cc1cc2c(c(/C=N/Cc3ccccc3)c1)OC1(C=C2)Oc2ccccc2C(=O)N1C` (centres undefined), the GI50 in assay [1] was 20.2 µM (inactive); in [2] it was 28.7 µM (inactive); in [3] it was 27.7 µM (inactive); in assay [4], 19.6 µM; in assay [5] it was 10.4 µM (inactive); in [6], 29.4 µM (inactive). Besides, the GI50 in assay [7] was 21.8 µM (inactive); in assay [8], 29.5 µM (inactive); in assay [9] it was 22.4 µM (inactive); in assay [10], 33.6 µM (inactive); in assay [11], 14.1 µM (inactive); in [12], 22 µM (inactive). In addition, the GI50 was 25.4 µM (inactive) in assay [13]; 25.1 µM (inactive) in assay [14]; 23.9 µM (inactive) in assay [15]; 24.7 µM (inactive) in assay [16]; 19.9 µM (inactive) in assay [17]; 23.5 µM (inactive) in assay [18]. In addition, the figures for the GI50 in [19] and in assay [20] were 17.4 µM (inactive) and 11.6 µM (inactive), respectively.
Consider `Cc1ccc(C2=Nn3c(nc4sc5c(c4c3=O)CCCC5)SC2)cc1`, for which the GI50 was > 100 µM (inactive) in [1]; > 100 µM (inactive) in assay [2]; > 100 µM (inactive) in assay [3]; greater than 100 µM in [4]; > 100 µM (inactive) in assay [5]; > 100 µM (inactive) in assay [6]. Besides, the GI50 in assay [7], in [8], in assay [9], in assay [10], in [11] and in assay [12] was > 100 µM (inactive) in each case. Besides, the GI50 in assay [13], in assay [14], in assay [15], in assay [16], in assay [17] and in assay [18] was > 100 µM (inactive) in each case. Moreover, the GI50 in [19] and in [20] was > 100 µM (inactive) in each case.
For `Cc1cc(NC(=O)NC(=O)c2ccccc2N)ccc1Oc1ncc(Br)cn1`, the GI50 in assay [1] was < 0.01 µM (active); in assay [2], < 0.01 µM (active); in assay [3], 0.0583 µM (active); in [4], less than 0.0107 µM; in [5] it was 0.359 µM (active); in assay [6], < 0.0119 µM (active). The GI50 is 0.0163 µM (active) in [7]; 0.0112 µM (active) in [8]; 0.0347 µM (active) in assay [9]; < 0.0103 µM (active) in assay [10]; < 0.01 µM (active) in assay [11]; < 0.011 µM (active) in assay [12]. Moreover, the GI50 is 0.0125 µM (active) in assay [13]; < 0.0112 µM (active) in assay [14]; < 0.0802 µM (active) in [15]; < 0.01 µM (active) in assay [16]; < 0.01 µM (active) in assay [17]; < 0.01 µM (active) in assay [18]. Besides, the GI50 in assay [19] was 0.0139 µM (active); in [20] it was 0.0111 µM (active).
As to `CC(=O)NN/C=N/C(C#N)=C(\N)C#N`, the GI50 in [1] was > 100 µM (inactive); in assay [2] it was > 100 µM (inactive); in [3], > 100 µM (inactive); in assay [4], greater than 100 µM; in assay [5] it was > 100 µM (inactive); in [6], > 100 µM (inactive). For the same molecule, the GI50 in assay [7], in assay [8], in assay [9], in [10], in assay [11] and in assay [12] was > 100 µM (inactive) in each case. The GI50 in [13], in assay [14], in [15], in assay [16], in assay [17] and in [18] was > 100 µM (inactive) each time. Further, the GI50 in assay [19] and in assay [20] was > 100 µM (inactive) each time.
As to `COc1cccc(C23CCCC(C2)N(C)CC3OC(=O)c2ccccc2)c1OC` (centres undefined), the GI50 in assay [1] is 20.7 µM (inactive); in assay [2] it was 18 µM (inactive); in assay [4], 22.5 µM; in assay [5], 20.3 µM (inactive); in assay [6], 32.7 µM (inactive); in [7] it was 32 µM (inactive). Also, the GI50 is 41 µM (inactive) in [8]; 25.9 µM (inactive) in [9]; 24.4 µM (inactive) in [10]; 18.8 µM (inactive) in assay [11]; 15.6 µM (inactive) in assay [12]; 36 µM (inactive) in assay [13]. For the same molecule, the GI50 in [14] was 20.6 µM (inactive); in assay [15], 34.7 µM (inactive); in assay [16] it was 23.8 µM (inactive); in [17], 14 µM (inactive); in assay [18] it was 14.5 µM (inactive); in assay [19], 20.1 µM (inactive). In addition, the GI50 in assay [20] is 12.5 µM (inactive).
For `O=S(=O)(O)c1cc(Nc2ccnc3ccccc23)c2c(S(=O)(=O)O)cc(S(=O)(=O)O)cc2c1`, the GI50 in assay [1] is > 100 µM (inactive); in [2] it was > 100 µM (inactive); in assay [3], > 100 µM (inactive); in assay [4], greater than 100 µM; in [5] it was > 100 µM (inactive); in [6], > 100 µM (inactive). In addition, the GI50 in assay [7] was > 100 µM (inactive); in [8] it was > 100 µM (inactive); in assay [9] it was > 100 µM (inactive); in assay [10], 42.1 µM (inactive); in assay [12], > 100 µM (inactive); in assay [13], > 100 µM (inactive). Besides, the GI50 in assay [14], in [15], in assay [16], in assay [17], in assay [18] and in assay [19] was > 100 µM (inactive) each time. The GI50 in [20] is > 100 µM (inactive).
In the case of `CC(C)CC(NP(=O)(O)OC1OC(C)C(O)C(O)C1O)C(=O)NC(Cc1c[nH]c2ccccc12)C(=O)O` (centres undefined), the GI50 in assay [1] is > 100 µM (inactive); in assay [2] it was > 100 µM (inactive); in [3], > 100 µM (inactive); in assay [4] it was greater than 100 µM; in [5], > 100 µM (inactive); in assay [6], > 100 µM (inactive). The GI50 in assay [7], in assay [8], in assay [9], in [10], in [11] and in assay [12] was > 100 µM (inactive) each time. Also, the GI50 in assay [13], in [14], in [15], in assay [16], in assay [17] and in [18] was > 100 µM (inactive) throughout. The GI50 in assay [20] is > 100 µM (inactive).
As for `O=C(O)c1nc2ccccc2nc1Nc1ccc(F)cc1`, the GI50 is 36.8 µM (inactive) in assay [1]; 34.8 µM (inactive) in [2]; 26.7 µM in [4]; 28.4 µM (inactive) in [5]; 40.9 µM (inactive) in [6]; 22.9 µM (inactive) in assay [7]. The GI50 in [8] was 33.4 µM (inactive); in assay [9], 27.2 µM (inactive); in assay [10] it was 38.5 µM (inactive); in assay [11] it was 32.1 µM (inactive); in assay [12], 37.4 µM (inactive); in assay [13], 33.7 µM (inactive). For the same molecule, the GI50 in [14] was 34 µM (inactive); in assay [15], 40 µM (inactive); in [16], 27.9 µM (inactive); in [17], 21.6 µM (inactive); in [18], 44.3 µM (inactive); in [19], 34.1 µM (inactive). Further, the GI50 in assay [20] is 29.8 µM (inactive).
For the molecule `CCN(CC)P1(=S)Oc2ccc3ccccc3c2-c2c(ccc3ccccc23)O1`, the GI50 is > 100 µM (inactive) in assay [1]; > 100 µM (inactive) in assay [2]; > 100 µM (inactive) in [3]; 63.4 µM in [4]; 22.5 µM (inactive) in assay [5]; > 100 µM (inactive) in assay [6]. Also, the GI50 was > 100 µM (inactive) in assay [8]; > 100 µM (inactive) in assay [9]; > 100 µM (inactive) in assay [10]; > 100 µM (inactive) in assay [11]; 89.3 µM (inactive) in assay [12]; > 100 µM (inactive) in assay [13]. The GI50 in assay [14], in assay [15], in assay [16], in assay [17], in [18] and in assay [19] was > 100 µM (inactive) throughout. The GI50 in assay [20] is > 100 µM (inactive).
As for `COC(=O)[C@H]1NC(=O)CCSSC1(C)C`, the GI50 in [1] is > 100 µM (inactive); in assay [2], > 100 µM (inactive); in [3] it was > 100 µM (inactive); in [4], greater than 100 µM; in assay [5] it was > 100 µM (inactive); in assay [6], > 100 µM (inactive). Besides, the GI50 in assay [7], in assay [8], in [9], in assay [10], in assay [11] and in [12] was > 100 µM (inactive) throughout. Further, the GI50 in assay [13], in [15], in assay [16], in [17], in assay [18] and in assay [19] was > 100 µM (inactive) each time. For the same molecule, the GI50 in [20] was > 100 µM (inactive).
